The values that follow come from ChEMBL document CHEMBL1649144, “Breakpoints for susceptibility testing should not divide wild-type distributions of important target species” (2009).

In brackets after ≈: the same amount, converted by molar mass.

Assay type in all cases: functional
The subject of one assay is Candida parapsilosis. Kind of assay: Antimicrobial activity against Candida parapsilosis ATCC 21019 by EUCAST method. To be noted: Lodderomyces parapsilosis.
Assay [1] deals with Nakaseomyces glabratus. Kind of assay: Antimicrobial activity against Candida glabrata by EUCAST method.
Assay [2] has as its system Nakaseomyces glabratus. Nature of the assay: Antimicrobial activity against Candida glabrata SSI-M68190-2007 by EUCAST method.

By MIC is commonly meant the least concentration at which growth counts as inhibited. Take `OC(Cn1cncn1)(Cn1cncn1)c1ccc(F)cc1F` [FLUCONAZOLE]: the minimal inhibitory concentration (MIC) with Candida parapsilosis turned out to be 0.5 µg/mL (≈ 1.63 µM); in the assay on Nakaseomyces glabratus [1], 8 µg/mL (≈ 26.1 µM); in the assay with Nakaseomyces glabratus [2], 0.5 µg/mL (≈ 1.63 µM).
